Data set [1] can be described thus: cytotoxicity assay (MTT, CC50). The class given is cell-based. Conditions: human, HepDE19 cells. How it is done:
(§1) Cell plates were then incubated with compound dilutions and controls as described above, and addition of 3-[4,5-dimethylthiazol-2-yl]-2,5-diphenyltetrazolium bromide (MTT, Sigma-Aldrich) was added to a final concentration of 0.5 mg/ml (Mosmann, T. 1983). Plates were again incubated at 37° C. for 4 hrs, after which 10% SDS/0.01N HCl was added to each well in a volume equal to the medium (100 μl), followed by overnight incubation. Absorbance was read in the Rainbow spectrophotometer (Tecan US Inc., Durham, N.C.) at 570 nm (reference wavelength of 630 nm), and analyzed with XLfit 4.0 as described above.

A further data set concerns HBV cccDNA. As to the kind of experiment: cccDNA inhibition assay (Southern blot of Hirt DNA). To be noted: for levels of HBV cccDNA and DP-rcDNA in cell cultures / pEC50: HepDES19 cells; for levels of HBV cccDNA and DP-rcDNA in cell cultures: day 12, figure legend; for pEC50: 288 h, harvested at day 12, read-out: EC50 of reduction of cccDNA. Format: cell-based, hepatitis B virus. The protocol:
Cell cultures: HepG2.2.15 cells were maintained in DMEM/F12 medium (Mediatech, Manassas, Va.) supplemented with 10% fetal bovine serum, 100 U/ml penicillin and 100 μg/ml streptomycin, plus 400 μg/ml G418. Tetracycline inducible HBV producer cells, specifically HepDE19 and HepDES19 cells, were maintained in the same way as HepG2.2.15, but with the addition of 1 μg/ml tetracycline (Guo, H., D. Jiang, T. Zhou, A. Cuconati, T. M. Block, and J. T. Guo. 2007). To initiate HBV replication and cccDNA formation in HepDE19 and HepDES19 cells, tetracycline was withdrawn from the culture medium and the cells were cultured for the indicated time period.
Viral nucleic acid analysis: Total cellular RNA was extracted with TRIzol reagent (Invitrogen, Grand Island, N.Y.) by following manufacturer's directions. Ten microgram of total cellular RNA was resolved in 1.5% agarose gel containing 2.2 M formaldehyde and transferred onto Hybond-XL membrane (GE Healthcare, Piscataway, N.J.) in 20×SSC buffer. Intracellular hepadnaviral core DNA and cccDNA (Hirt DNA) were extracted as described previously (Guo, H., D. Jiang, T. Zhou, A. Cuconati, T. M. Block, and J. T. Guo. 2007. Guo, H., D. Jiang, T. Zhou, A. Cuconati, T. M. Block, and J. T. Guo. 2007. Guo, H., R. Mao, T. M. Block, and J. T. Guo. 2010. Guo, H., W. S. Mason, C. E. Aldrich, J. R. Saputelli, D. S. Miller, A. R. Jilbert, and J. E. Newbold. 2005). Half of the DNA samples recovered from one well of a 6-well-plate were resolved by electrophoresis into a 1.2% agarose gel and blotted onto Hybond-XL membrane. Membranes were probed with either an α-^32P-UTP (800 Ci/mmol, Perkin Elmer) labeled hepadnaviral minus (detecting DNA) or plus strand (detecting RNA) specific full-length riboprobe and exposed to a phosphorimager screen (Fuji Film, Tokyo, Japan). Hybridization signals were visualized by Typhoon FLA-7000 (GE Healthcare) and quantified with ImageQuantTL software (GE Healthcare). […]
Identification of compounds that inhibits cccDNA accumulation in HepDES19 cells: Compounds were tested on HepDES19 cells, which have a higher level of cccDNA production than HepDE19 cells (Guo, H., D. Jiang, T. Zhou, A. Cuconati, T. M. Block, and J. T. Guo. 2007). Briefly, after withdrawal of tetracycline, HepDES19 cells were left untreated, or were treated with compound at serial concentrations; tetracycline-free media was changed every other day with fresh compound supplementation. The concentration of DMSO in all experimental groups was normalized at 0.1%. The cells were harvested at day 12, viral RNA (top panel), core DNA (middle panel), and Hirt DNA (DP-rcDNA and cccDNA) (bottom panels) were extracted and analyzed by Northern blot and Southern blot, respectively. Shorter exposure of the Hirt DNA blot was used for the quantitative determination of DP-rcDNA signals. […] The reduction between DP-rcDNA and cccDNA was proportional compared with untreated control. […] Liu, C. P. Hu, and C. Chang. 2005. Guo, H., T. Zhou, D. Jiang, A. Cuconati, G. H. Xiao, T. M. Block, and J. T. Guo. 2007. Zhou, T., H. Guo, J. T. Guo, A. Cuconati, A. Mehta, and T. M. Block. 2006).

In another data set the test system is HepDE19 cells. Description: cytotoxicity assay (MTT, CC50). The class given is cell-based. The protocol:
as §1

Here are results for two compounds from patent US9657013B2, “Inhibitors of hepatitis B virus covalently closed circular DNA formation and their method of use” (priority 2012, dated 2017).

pEC50: −log10 of the molar value.

Broadly, the CC50 is the concentration giving 50% cytotoxicity. A lower CC50 goes with greater toxicity to the cells. By pEC50 is commonly meant −log10 of the EC50, conventionally taken in molar units. The term inhibition denotes the drop in the measured response relative to a control, in per cent. As to `Cc1nc2cc(NC(=O)c3ccc(S(=O)(=O)N(C)Cc4ccccc4)cc3)ccc2s1` [CCC-0346, 4-(Benzyl-methyl-sulfamoyl)-N-(2-methyl-benzothiazol-5-yl)-benzamide], it took 3 µM to reach half-maximal cytotoxicity in data set [1] (CC50). The “levels of HBV cccDNA and DP-rcDNA in cell cultures” value in the data set on HBV cccDNA is listed as “reduces”. Further, in the data set with HBV cccDNA (Hepatitis B virus), the negative-log EC50 (pEC50) was 5.52. Besides, in the data set on HBV cccDNA (Hepatitis B virus, Concentration 0.3 μM, read-out: cccDNA inhibition % Reduction), the inhibition at 0.3 µM came out at 20%. Besides, the inhibition at 1 µM in the data set with HBV cccDNA (Hepatitis B virus, Concentration 1 μM, read-out: cccDNA inhibition % Reduction) worked out at 30%. Further, the inhibition at 3 µM with HBV cccDNA (Hepatitis B virus, Concentration 3 μM, read-out: cccDNA inhibition % Reduction) was 60%.
As to `O=C(CN(c1cc(C(F)(F)F)ccc1Cl)S(=O)(=O)c1ccccc1)NCc1ccncc1` [CCC-0975, 2-[Benzenesulfonyl-(2-chloro-5-trifluoromethyl-phenyl)-amino]-N-pyridin-4-ylmethyl-acetamide], the CC50 in the data set on HepDE19 cells is over 50 µM. Also, the “cccDNA inhibition % Reduction” value is on record as 10% in the data set on HBV cccDNA (Concentration 1 μM, 1 µM); 20% in the data set on HBV cccDNA (Concentration 3 μM, 3 µM); 70% in the data set on HBV cccDNA (Concentration 10 μM, 10 µM). The “levels of HBV cccDNA and DP-rcDNA in cell cultures” value in the data set on HBV cccDNA is reported as “reduces”. In addition, the pEC50 with HBV cccDNA (Hepatitis B virus) is 5.00.
